What all share (type): cell-based
In one series the test system is LNCaP cell culture. The text has this:
In one non-limiting example, Peptide A-8R [SEQ ID NO: 1] can be truncated to a smaller peptide that retains the same type of biological activity profile. In certain embodiments, truncating Peptide A-8R [SEQ ID NO: 1] results in greater potency upon conversion of some of the pharmacophore functionalities to peptidomimetic groups that can, in turn, enhance key interactions by lowering the net binding energy. In one experiment, Peptide A-8R [SEQ ID NO: 1] was divided into two parts, using the central proline residue as the division point. […] A minimum number of amino acids desired for cytotoxicity was then identified. […] The following Peptide A truncated and derivative probes were synthesized and evaluated for their effect on cytotoxicity after 3- and 6-day exposures:
The following table lists cell culture data for truncated Peptide A peptides. The amino acid sequences and IC50 values in μM concentrations depict cytotoxicity after 3- and 6-day exposures (“NotA” means not active). “8R” [SEQ ID NO: 6] signifies that 8 arginines are present on the carboxy terminus to mediate membrane translocation. The data has shown that the 8R terminus [SEQ ID NO: 6] can be either as the free carboxy (—OH) or amide (—NH2) with no alteration of permeation or observed activity.
The table below lists LNCaP cell culture data for various Peptide A derivatives, displaying the observed IC50 values in μM concentrations after 3- and 6-day exposures.

Series [1] relates to C81 (androgen-refractory LNCaP) cells. As to the kind of experiment: C81 cell density with peptide. As to conditions: 10 μM peptide; 1-8 hrs. The procedure:
FIG. 15B: C81 (androgen-refractory LNCaP) cells were grown for 1-8 hrs in the presence of 10 μM Peptide A-8R [SEQ ID NO: 1] or vehicle and then cell density was measured.
(§1) To measure how rapid the cytotoxic effect of Peptide A-8R [SEQ ID NO: 1] occurs, LNCaP cells were treated with 10 μM peptide and incubated for 1-8 hrs. […] Using the same conditions, C81 cells were used to study the peptide effect on hormone-refractory prostate cancer cells.

Series [2] relates to CWR22-Rv1 (androgen-refractory) cells. The series is described as follows: CWR22-Rv1 cell density with peptide. The note with it: 10 μM peptide; 1-8 hrs. The protocol:
FIG. 15C: CWR22-Rv1 (androgen-refractory) cells were grown for 1-8 hrs in the presence of 10 μM Peptide A-8R [SEQ ID NO: 1] or vehicle and then cell density was measured.
as §1

The subject of series [3] is PC-3 prostate cancer cells. As to the kind of experiment: PC-3 cell density with peptide. As to conditions: even at 100 μM; 3 or 6 days; no endogenous sGCα1. The protocol: FIG. 17A: PC-3 prostate cancer cells were grown for 3 or 6 days in the presence of increasing concentration of Peptide A-8R [SEQ ID NO: 1] or vehicle and then cell density was measured.
In series [4] the test system is Cos monkey kidney cancer cells. The series is described as follows: Cos cell density with peptide. The note with it: even at 100 μM; 2 or 4 days; no endogenous sGCα1. The protocol: FIG. 17B: Cos monkey kidney cancer cells were grown for 2 or 4 days in the presence of increasing concentration of Peptide A-8R [SEQ ID NO: 1] or vehicle and then cell density was measured.

Series [5] concerns Capan-2 pancreatic cancer cells. The series is described as follows: Capan-2 cell density with peptide. As to conditions: increasing concentration; 3 or 5 days. The procedure:
FIG. 21B: Capan-2 pancreatic cancer cells were grown for 3 or 5 days in the presence of increasing concentration of Peptide A-8R [SEQ ID NO: 1] or vehicle and then cell density was measured.
To determine if Peptide A-8R [SEQ ID NO: 1] can be cytotoxic to other cancer cells, a pancreatic cancer cell line, Capan-2, was also tested.

Take “Ac-TFCKAFPFHIIRRRRRRRR-OH [Peptide A-8R]”: the Cytotoxicity entry in the series on LNCaP cell culture is “Yes”. In series [1], the “killing of C81 cells” value was “very effective at killing”. Besides, the “killing of CWR22-Rv1 cells” value in series [2] is on record as “able to kill”. The “effect on PC-3 cells” value in series [3] is listed as “little to no effect”. The “effect on Cos cells” value in series [4] is reported as “little to no effect”. In series [5], the “cytotoxicity to Capan-2 cells” value is given as “strongly cytotoxic”.

For the origin of these results see patent publication US9546196B2, “Compositions and methods of treatment of cancers” (The University of Toledo, priority 2009, dated 2017).
